Laboratory results taken from patent US11492359B2, “Near-infrared nerve-sparing fluorophores” (OREGON HEALTH & SCIENCE UNIVERSITY, priority 2018, dated 2022).

Key:
swine peripheral nerves = test: Swine nerve imaging on da Vinci Si surgical system; assay type: in vivo
Description: A custom-built laparoscopic imaging system also capable of real-time color and fluorescence imaging was used to acquire in vivo swine images and videos. The imaging system was integrated into the da Vinci Si surgical system (Intuitive Surgical, Sunnyvale, Calif.) and consisted of a Necsel Neon 5 W 640 nm laser (Necsel, Milpitas, Calif.) coupled to the da Vinci Si endoscope with a 642 nm StopLine single-notch blocking filter (Semrock, Rochester, N.Y.). The single-notch blocking filter was placed in the Si camera sterile adaptor between the rod lens endoscope and the Si camera head. Fluorescent signal acquisition occurred in the Si white light mode with the blocking filter removing the excitation light and the fluorescent signal detected primarily on the red, green, blue (RGB) red-Bayer elements of a modified Si endoscope camera head. Laser power at the endoscope tip measured 800 mW with the optical power loses occurring primarily at the laser fiber/light guide and the Si camera head/rod lens interfaces. Fluorescence and color videos were captured using the Si Vision side cart at an exposure time of 2 ms. Videos were recorded on a Panasonic HD-SDI recorder connected to the TilePro video out connections on the da Vinci Si Vision side cart. Video clips were edited in iMovie to crop their length and include text overlays. Screen captures of the in vivo video clips were collected and are presented as figures. Da Vinci Si imaging display algorithms apply non-linear gamma and color corrections to the collected video, and thus, while image quantification is possible to report what would be visible to surgeons intraoperatively, these values are only semi-quantitative and could vary from what is observed in a more controlled system.
Swine nerve imaging studies of Oxazine derivatives. LGW01-08 and LGW05-75 were administered via IV injection at a body surface area scaled dose from mice for swine nerve imaging studies (0.34 mg/kg) (Nair & Jacob, J Basic Clin Pharm 7, 27-31 (2016) and Sharma & McNeill, Br J Pharmacol 157, 907-921 (2009)). Nerves running along the body wall in the peritoneal cavity buried beneath 1-3 mm of fascia and adipose tissue were imaged using the previously described fluorescence enabled laparoscopic imaging system docked to the da Vinci Si Surgical System. Nerve contrast was monitored immediately following injection and up to 6 hours after systemic administration. Dissection and resection of the identified nerve structures was performed using the da Vinci system, where the resected tissues were fixed in formalin. The fixed tissues were sent to the OHSU Histopathology Shared Resource for paraffin embedding, sectioning and subsequent gold standard H&E staining.
Image analysis of intraoperative nerve contrast. Custom written MatLab code was used to analyze the tissue specific fluorescence where regions of interest (ROIs) were selected on the nerve, muscle and adipose tissue using the white light images, but blinded to the fluorescence images. These ROIs were then analyzed on the co-registered, matched fluorescence images permitting assessment of the mean tissue intensities as well as the nerve to muscle (N/M) and nerve to adipose (N/A) ratios. Fluorescence intensity measurements were divided by the exposure time to obtain normalized intensity per second measurements. Mean nerve to background tissue ratios (N/M and N/A) were calculated for each Oxazine derivative. For nerve imaging at depth image analysis, fluorescent line profiles and 3-D intensity topographical plots were generated in ImageJ using the plot profile and surface plot functions, respectively. The line profiles were background and exposure time corrected by dividing by the exposure time of each image and subtracting the average intensity of background pixels from the entire line profile. […] In addition, non-uniform tissue surfaces, variable endoscope-tissue positioning, and vignetting add further complications to resolving tissue-level SBRs.

[1] = UV-Vis absorption and fluorescence spectroscopy of the Oxazine library; assay type: physicochemical; conditions: for Extinction coefficient: Beer's Law plots; for Quantum yield: relative, references Oxazine 1, Oxazine 170, Rhodamine 101
Outline: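 Absorbance measured at room temperature in 1-cm quartz cuvette, reference corrected; extinction coefficient from Beer's Law plots of absorbance vs concentration. Fluorescence spectra corrected for PMT response; relative quantum yields averaged over multiple measurements against Oxazine 1, Oxazine 170 and Rhodamine 101 references.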

[2] = system: murine brachial plexus and sciatic nerves; test: Nerve-specificity screening using systemic administration; assay type: in vivo; conditions: for nerve specificity / nerve contrast (N/M vs control group) following systemic administration: IV, 200 nmol, 4 hours prior to imaging
[3] = system: murine brachial plexus and sciatic nerves; test: Nerve-specificity screening using direct/topical administration; assay type: in vivo, mouse; conditions: for nerve specificity (N/M contrast vs control group) via direct administration: 125 μM, imaged 30 minutes after staining
Description: All reagents were purchased from Sigma Aldrich, Fisher Scientific, TCI, or Ark Pharm. Unless otherwise indicated, all commercially available starting materials were used directly without further purification. Analytical thin layer chromatography (TLC) was performed on Millipore ready-to-use plates with silica gel 60 (F254, 32-63 μm). Flash chromatography was performed on Sorbent Technologies silica gel for column chromatography or on a Biotage Isolera Flash System using SNAP Ultra cartridges. High-resolution mass spectra (HRMS) were measured on a ThermoElectron LTQ-Orbitrap high resolution mass spectrometer with a dedicated Accela HPLC system, or an Agilent 6244 time-of-flight LCMS with diode array detector VL+. LCMS and Purity Characterization Mass-to-charge ratio and purity of the Oxazine compounds were characterized on an Agilent 6244 time-of-flight tandem liquid chromatography mass spectroscopy (LCMS) with diode array detector VL+. Sample (10 μL) was injected into a C18 column (Poroshell 120, 4.6×50 mm, 2.7 micron), and eluted with a solvent system of A (H2O, 0.1% FA) and B (MeCN, 01.% FA) at 0.4 mL/min, from A/B=90/10 to 5/95 over 10 min, maintained at A/B=5/95 for additional 5 min. Ions were detected in positive ion mode by setting the capillary voltage at 4 kV and gas temperature at 350° C. Purity was calculated through area under the curve analysis of the absorbance at 254 nm. UV-Vis Absorption and Fluorescence Spectroscopy. UV-Vis spectra were collected with a Cary 50 UV-Vis spectrophotometer at room temperature, using a 1-cm quartz cuvette. Fluorescence spectra were collected on a Cary Eclipse fluorescence spectrophotometer (Agilent Technologies). All absorbance spectra were reference corrected. Extinction coefficient was calculated from Beer's Law plots of absorbance versus concentration. Fluorescence spectra were corrected for the wavelength dependent response of the R928 photomultiplier tube using a manufacturer generated correction file. Relative quantum yields are reported as the average of multiple measurements using multiple references, including Oxazine 1, Oxazine 170, and Rhodamine 101. Physicochemical Property Calculation. Physicochemical partition coefficients (Log D) values at pH 7.4, number of hydrogen bond donors and acceptors, polar surface area, and the number of rotatable bonds were calculated using Marvin and JChem calculator plugins (ChemAxon, Budapest, Hungary). Nerve-Specificity Screening using Direct/Topical Administration Each compound was screened for its tissue-specificity using a previously published direct/topical administration strategy in murine brachial plexus and sciatic nerves.^1 Each compound from the Oxazine library was formulated in the previously utilized co-solvent formulation (10% DMSO, 5% Kolliphor, 65% serum and 20% phosphate buffered saline) at 125 μM. 100 μL of the formulated Oxazine were incubated on the exposed brachial plexus or sciatic nerve for 5 minutes. The fluorophore containing solution was removed and the area was irrigated with saline 18 times to remove any unbound fluorophore. Co-registered fluorescence and color images were collected of each stained area 30 minutes after Oxazine direct/topical administration using a custom built macroscopic imaging system with 620/60 nm excitation and 700/75 nm bandpass emission filters. Custom written MatLab code was used to analyze the tissue specific fluorescence where regions of interest were selected on the nerve, muscle and adipose tissue using the white light images. These regions of interest were then analyzed on the co-registered matched fluorescence images permitting assessment of the nerve to muscle and nerve to adipose ratios in blinded manner. […]

[4] = system: mouse brachial plexus nerves; test: Nerve imaging at depth under muscle tissue; assay type: in vivo; conditions: for width of smallest nerve branches distinguished under muscle tissue: direct administration, under 1 mm of muscle tissue; for thickness of muscle tissue under which nerve tissue could be identified: following both systemic and direct administration, 700 nm channel filters
Description: Nerve imaging at depth studies using a model Oxazine derivative. Oxazine 4 and LGW01-08 were used to stain mouse brachial plexus nerves using both direct and systemic administration methods using the same dose and administration methods previously described. The ability to image the brachial plexus nerve at depth was assessed under varying thicknesses of mouse muscle tissue. Muscle tissue was resected from the peritoneal muscle layer and measured for thickness. One and two layers of resected peritoneal muscle tissue was placed over the stained nerves, providing one and two mm thick homogenous tissue through which the stained nerve tissue was imaged. The same muscle tissue was used to cover the stained nerves from both fluorophores with care taken to orient the muscle in the same way to ensure equivalent comparison. The imaging system configuration was changed to reflect the 700 nm channel in clinically relevant FGS systems (Tummers et al., Eur J Surg Oncol 40, 850-858 (2014); Troyan et al., Ann Surg Oncol 16, 2943-2952 (2009); Ashitate et al., The Journal of surgical research 176, 7-13 (2012); Verbeek et al., The Journal of urology 190, 574-579 (2013); Hillary et al., Langenbecks Arch Surg 403, 111-118 (2018); and Mery et al., Oncotarget 8, 109559-109574 (2017). For fluorescence excitation, the PhotoFluor II was filtered with a 650±22.5 nm bandpass excitation filter. The resulting fluorescence was collected with a 720±30 nm bandpass emission filter for image collection. Camera exposure times ranged from 0.025-4 s for fluorescence image collection.
Image analysis of intraoperative nerve contrast. Custom written MatLab code was used to analyze the tissue specific fluorescence where regions of interest (ROIs) were selected on the nerve, muscle and adipose tissue using the white light images, but blinded to the fluorescence images. These ROIs were then analyzed on the co-registered, matched fluorescence images permitting assessment of the mean tissue intensities as well as the nerve to muscle (N/M) and nerve to adipose (N/A) ratios. Fluorescence intensity measurements were divided by the exposure time to obtain normalized intensity per second measurements. Mean nerve to background tissue ratios (N/M and N/A) were calculated for each Oxazine derivative. For nerve imaging at depth image analysis, fluorescent line profiles and 3-D intensity topographical plots were generated in ImageJ using the plot profile and surface plot functions, respectively. The line profiles were background and exposure time corrected by dividing by the exposure time of each image and subtracting the average intensity of background pixels from the entire line profile. […]

nerve and muscle tissue = test: Ex vivo tissue staining nerve-specificity screening
Description: Oxazine derivative library nerve-specificity screening. All 64 Oxazine derivatives were screened for nerve specificity using a previously described ex vivo tissue staining assay (Gibbs, S. L., et al., PloS one 8, e73493 (2013)). Ex vivo nerve and muscle tissue fluorescence intensities varied, with many compounds showing minimal nerve or muscle tissue fluorescence above control autofluorescence following Oxazine derivative staining. […] All Oxazine derivatives were further screened for nerve-specificity in vivo using both direct and systemic administration strategies. The direct administration strategy enabled quantification of nerve-specificity and contrast following fluorophore contact with the nerves and surrounding tissues without the requirement of BNB penetration, providing the most similar comparison to ex vivo nerve-specificity screening. The systemic administration screening studies required not only nerve specificity, but also adequate biodistribution and BNB penetration to generate SBR for visualization.

[5] = reported nerve-specific fluorophores; cited from earlier work

Structure (SMILES)	time post-injection at which signal approached background levels (swine peripheral nerves; swine, IV 0.34 mg/kg)	nerve contrast against key surgical tissue classes (adipose, muscle, vasculature, peritoneal) (swine peripheral nerves; swine, laparoscopic)	SBR of buried nerve tissues (swine peripheral nerves; swine, underlying peritoneal tissue and several millimeters of mixed adipose and muscle tissues, semi-quantitative)	faster time to positive N/A and N/M fluorescence compared to current visible-emissive agents (swine peripheral nerves; systemic administration)	time post-injection to nerve signal / strong nerve contrast (swine peripheral nerves; systemic administration)	Max Abs [1]	Max Em [1]	Max Ex [1]	Extinction coefficient [1]	Quantum yield [1]	nerve specificity / nerve contrast (N/M vs control group) following systemic administration [2]	N/M and N/A ratios vs unstained control animals ([2]; systemic administration)	nerve specificity (N/M contrast vs control group) via direct administration [3]	N/M and N/A ratios vs unstained control animals ([3]; direct administration)	width of smallest nerve branches distinguished under muscle tissue [4]	thickness of muscle tissue under which nerve tissue could be identified [4]	ex vivo nerve specificity (N/M SBR vs unstained control group) (nerve and muscle tissue)	emission wavelength maximum [5]
CCNc1cc2oc3cc(=[N+](CC)CC)ccc-3nc2cc1C [LGW01-08, N-ethyl-N-(7-(ethylamino)-8-methyl-3H-phenoxazin-3-ylidene)ethanaminium]	~4 h	positive nerve contrast	~1.5	2-6 fold	20 min	638 nm	659 nm	640 nm	78650 M⁻¹ cm⁻¹	5.68%	high nerve specificity	significantly higher N/M and N/A ratios than unstained control animals	high nerve specificity	significantly higher N/M and N/A ratios than unstained control animals	~200 μm	up to 2 mm		
CN(C)c1ccc2nc3ccc(=[N+](C)C)cc-3oc2c1 [LGW01-39, N-(7-(dimethylamino)-3H-phenoxazin-3-ylidene)-N-methylmethanaminium]						648 nm	667 nm	650 nm	76144 M⁻¹ cm⁻¹	9.56%							significantly higher N/M SBR compared to the unstained control group	
CC/N=c1/cc2oc3cc4c(cc3nc-2cc1C)C(C)=CC(C)(C)N4 [LGW01-44, (Z)—N-(2,2,4,8-tetramethyl-1,2-dihydro-9H-pyrido[3,2-b]phenoxazin-9-ylidene)ethanaminium]						648 nm	664 nm	650 nm	40124 M⁻¹ cm⁻¹	21.63%	negative for nerve contrast		positive nerve specificity				significantly higher N/M SBR compared to the unstained control group	
CCN=c1cc2oc3cc(NCC)c(C)cc3nc-2cc1C.[O-][Cl+3]([O-])([O-])O [OX-4, reference compound]						618 nm	634 nm	620 nm	77156 M⁻¹ cm⁻¹	38.37%					did not possess the ability to resolve smaller branches	1 mm	lacked nerve-specificity ex vivo	635 nm
